Laboratory results from patent US4717767A, “7-amino-3-(pyrazinylmethyl) or (pyridazinylmethyl)-cephalosporins” (Toyama Chemical Co., Ltd., priority 1982, dated 1988).
Converted amounts (≈) assume the structure as drawn. Where a name gives a salt, the structure may show the parent alone. Read-outs that look alike come from different tables or passages of the source.

Legend:
Format in all cases: cell-based
Kl. pneumoniae Y-50 = experiment: Antibacterial activity (MIC), Kl. pneumoniae Y-50; conditions: Klebsiella pneumoniae, Y50; Heart Infusion agar, 37° C., 20 hours, 10^6 cells/ml
From the text: (§1) The amount of the inoculated bacteria was 10^4 cells/plate (10^6 cells/ml).

Pro. morganii T-216 = experiment: Antibacterial activity (MIC), Pro. morganii T-216; conditions: Morganella morganii, T216; Heart Infusion agar, 37° C., 20 hours, 10^6 cells/ml
From the text: as §1

Pro. vulgaris GN76 = experiment: Antibacterial activity (MIC), Pro. vulgaris GN76; conditions: Proteus vulgaris, cephalosporinase-producing strain, Heart Infusion agar, 37° C., 20 hours, 10^6 cells/ml
From the text: as §1

Cit. freundii N-7 = experiment: Antibacterial activity (MIC), Cit. freundii N-7; conditions: Citrobacter freundii
From the text: as §1

Ser. marcescens W-134 = experiment: Antibacterial activity (MIC), Ser. marcescens W-134; conditions: Serratia marcescens
From the text: as §1

Pro. mirabilis T-111 = experiment: Antibacterial activity (MIC), Pro. mirabilis T-111; conditions: Proteus mirabilis
From the text: as §1

Ps. aeruginosa GN918 = experiment: Antibacterial activity (MIC), Ps. aeruginosa GN918; conditions: Pseudomonas aeruginosa, cephalosporinase-producing strain, Heart Infusion agar, 37° C., 20 hours, 10^6 cells/ml
From the text: as §1

E. coli TK-3 = experiment: Antibacterial activity (MIC), E. coli TK-3; conditions: Escherichia coli
From the text: as §1

E. coli NIHJ = experiment: Antibacterial activity (MIC), E. coli NIHJ; conditions: Escherichia coli; Heart Infusion agar, 37° C., 20 hours, 10^4 cells/plate (10^6 cells/ml)
From the text: as §1

Kl. pneumoniae Y-41 = experiment: Antibacterial activity (MIC), Kl. pneumoniae Y-41; conditions: Klebsiella pneumoniae, Y41; Heart Infusion agar, 37° C., 20 hours, 10^6 cells/ml
From the text: as §1

Kl. pneumoniae Y-4 = experiment: Antibacterial activity (MIC), Kl. pneumoniae Y-4; conditions: Klebsiella pneumoniae, Y4; penicillinase-producing strain; Heart Infusion agar, 37° C., 20 hours, 10^6 cells/ml
From the text: as §1

Ser. marcescens IID620 = experiment: Antibacterial activity (MIC), Ser. marcescens IID620; conditions: Serratia marcescens
From the text: as §1

[1] = N7, Heart Infusion agar, 37° C., 20 hours, 10^6 cells/ml, read-out: MIC
[2] = W134, Heart Infusion agar, 37° C., 20 hours, 10^6 cells/ml, read-out: MIC
[3] = T111, Heart Infusion agar, 37° C., 20 hours, 10^6 cells/ml, read-out: MIC
[4] = TK3, penicillinase-producing strain, Heart Infusion agar, 37° C., 20 hours, 10^6 cells/ml, read-out: MIC
[5] = IID620, Heart Infusion agar, 37° C., 20 hours, 10^6 cells/ml, read-out: MIC

Row | SMILES | MIC (Kl. pneumoniae Y-50) | MIC (Pro. morganii T-216) | MIC (Pro. vulgaris GN76) | MIC (Cit. freundii N-7; [1]) | MIC (Ser. marcescens W-134; [2]) | MIC (Pro. mirabilis T-111; [3]) | MIC (Ps. aeruginosa GN918) | MIC (E. coli TK-3; [4]) | MIC (E. coli NIHJ) | MIC (Kl. pneumoniae Y-41) | MIC (Kl. pneumoniae Y-4) | MIC (Ser. marcescens IID620; [5]) | MIC (Pro. mirabilis T-111; T111, 20 h) | MIC (Ser. marcescens W-134; W134, 20 h) | MIC (Ser. marcescens IID620; IID620, 20 h) | MIC (Cit. freundii N-7; N7, 20 h) | MIC (E. coli TK-3; TK3, 20 h)
1 | CO/N=C(\C(=O)NC1C(=O)N2C(C(=O)O)=C(Cn3cc[nH]c(=O)c3=O)CSC12)c1csc(N)n1 (stereo not drawn) [A, trifluoroacetic acid salt of 7-[2-(2-aminothiazol-4-yl)-2-(syn)-methoxyiminoacetamido]-3-{[1-(2,3-dioxo-1,2,3,4-tetrahydropyrazinyl)]methyl}-Δ^3-cephem-4-carboxylic acid] | ≤ 0.1 µg/mL | ≤ 0.1 µg/mL | ≤ 0.1 µg/mL | 0.39 µg/mL | ≤ 0.1 µg/mL | ≤ 0.1 µg/mL | 12.5 µg/mL | ≤ 0.1 µg/mL | ≤ 0.1 µg/mL | ≤ 0.1 µg/mL | ≤ 0.1 µg/mL | ≤ 0.1 µg/mL |  |  |  |  | 
2 | CO/N=C(\C(=O)NC1C(=O)N2C(C(=O)O)=C(Cn3ccn(C)c(=O)c3=O)CSC12)c1csc(N)n1 (stereo not drawn) [B, trifluoroacetic acid salt of 7-[2-(2-aminothiazol-4yl)-2-(syn)-methoxyiminoacetamido]-3-{[1-(4-methyl-2,3-dioxo-1,2,3,4-tetrahydropyrazinyl)]methyl}-Δ^3-cephem-4-carboxylic acid] | ≤ 0.1 µg/mL | ≤ 0.1 µg/mL | 0.2 µg/mL | 1.56 µg/mL | ≤ 0.1 µg/mL | ≤ 0.1 µg/mL | 25 µg/mL | ≤ 0.1 µg/mL | ≤ 0.1 µg/mL | ≤ 0.1 µg/mL | 0.2 µg/mL | ≤ 0.1 µg/mL |  |  |  |  | 
3 | CCn1ccn(CC2=C(C(=O)O)N3C(=O)C(NC(=O)/C(=N\OC)c4csc(N)n4)C3SC2)c(=O)c1=O (stereo not drawn) [C, trifluoroacetic acid salt of 7-[2-(2-aminothiazol-4-yl)-2-(syn)-methoxyiminoacetamido]-3-{[1-(4-ethyl-2,3-dioxo-1,2,3,4-tetrahydropyrazinyl)]methyl}-Δ^3-cephem-4-carboxylic acid] | ≤ 0.1 µg/mL | ≤ 0.1 µg/mL | 1.56 µg/mL | 0.78 µg/mL | ≤ 0.1 µg/mL | ≤ 0.1 µg/mL | 6.25 µg/mL | ≤ 0.1 µg/mL | ≤ 0.1 µg/mL | ≤ 0.1 µg/mL | ≤ 0.1 µg/mL | ≤ 0.1 µg/mL |  |  |  |  | 
4 | CO/N=C(\C(=O)NC1C(=O)N2C(C(=O)O)=C(Cn3ccn(C(C)C)c(=O)c3=O)CSC12)c1csc(N)n1 (stereo not drawn) [D, trifluoroacetic acid salt of 7-[2-(2-aminothiazol-4-yl)-(syn)-methoxyiminoacetamido]-3-{[1-(4-isopropyl-2,3-dioxo-1,2,3,4-tetrahydropyrazinyl)]methyl}-Δ^3-cephem-4-carboxylic acid] | ≤ 0.1 µg/mL | ≤ 0.1 µg/mL | 0.39 µg/mL | 1.56 µg/mL | ≤ 0.1 µg/mL |  |  | ≤ 0.1 µg/mL | ≤ 0.1 µg/mL | ≤ 0.1 µg/mL | 0.39 µg/mL | ≤ 0.1 µg/mL | 0.2 µg/mL |  |  |  | 
5 | CO/N=C(\C(=O)NC1C(=O)N2C(C(=O)O)=C(Cn3ccn(N(C)C)c(=O)c3=O)CSC12)c1csc(N)n1 (stereo not drawn) [E, trifluoroacetic acid salt of 7-[2-(2-aminothiazol-4-yl)-2-(syn)-methoxyiminoacetamido]-3-{[1-(4-dimethylamino-2,3-dioxo-1,2,3,4-tetrahydropyrazinyl)]-methyl}-Δ^3-cephem-4-carboxylic acid] | ≤ 0.1 µg/mL | ≤ 0.1 µg/mL | 1.56 µg/mL | 0.78 µg/mL | ≤ 0.1 µg/mL | ≤ 0.1 µg/mL |  | ≤ 0.1 µg/mL | ≤ 0.1 µg/mL | ≤ 0.1 µg/mL | ≤ 0.1 µg/mL | ≤ 0.1 µg/mL |  |  |  |  | 
6 | Nc1nc(/C(=N/OCC(=O)O)C(=O)NC2C(=O)N3C(C(=O)O)=C(Cn4cc[nH]c(=O)c4=O)CSC23)cs1 (stereo not drawn) [F, 7-[2-(2-aminothiazol-4-yl)-2-(syn)-carboxymethoxyiminoacetamido]-3-{[1-(2,3-dioxo-1,2,3,4-tetrahydropyrazinyl)]methyl}-Δ^3-cephem-4-carboxylic acid] | ≤ 0.1 µg/mL | ≤ 0.1 µg/mL | ≤ 0.1 µg/mL | 0.78 µg/mL (≈ 1.41 µM) |  | ≤ 0.1 µg/mL |  | ≤ 0.1 µg/mL | ≤ 0.1 µg/mL | 0.39 µg/mL (≈ 0.707 µM) | 0.2 µg/mL (≈ 0.363 µM) | ≤ 0.1 µg/mL |  | ≤ 0.1 µg/mL |  |  | 
7 | Cn1ccn(CC2=C(C(=O)O)N3C(=O)C(NC(=O)/C(=N\OCC(=O)O)c4csc(N)n4)C3SC2)c(=O)c1=O (centres unmarked) [G] | 0.2 µg/mL (≈ 0.354 µM) | ≤ 0.1 µg/mL | ≤ 0.1 µg/mL | 1.56 µg/mL (≈ 2.76 µM) | ≤ 0.1 µg/mL | ≤ 0.1 µg/mL |  | 0.2 µg/mL (≈ 0.354 µM) | ≤ 0.1 µg/mL | ≤ 0.1 µg/mL | 0.2 µg/mL (≈ 0.354 µM) | ≤ 0.1 µg/mL |  |  |  |  | 
8 | CCn1ccn(CC2=C(C(=O)O)N3C(=O)C(NC(=O)/C(=N\OCC(=O)O)c4csc(N)n4)C3SC2)c(=O)c1=O (stereo not drawn) [H, trifluoroacetic acid salt of 7-[2-(2-aminothiazol-4-yl)-2-(syn)-carboxymethoxyiminoacetamido]-3-{[1-(4-ethyl-2,3-dioxo-1,2,3,4-tetrahydropyrazinyl)]methyl}-Δ^3-cephem-4-carboxylic acid] | 0.2 µg/mL | ≤ 0.1 µg/mL | ≤ 0.1 µg/mL | 1.56 µg/mL | ≤ 0.1 µg/mL | ≤ 0.1 µg/mL | 6.25 µg/mL | ≤ 0.1 µg/mL | ≤ 0.1 µg/mL | ≤ 0.1 µg/mL | 0.2 µg/mL | ≤ 0.1 µg/mL |  |  |  |  | 
9 | CN(C)n1ccn(CC2=C(C(=O)O)N3C(=O)C(NC(=O)/C(=N\OCC(=O)O)c4csc(N)n4)C3SC2)c(=O)c1=O (stereo not drawn) [I, trifluoroacetic acid salt of 7-[2-(2-aminothiazol-4-yl)-2-(syn)-carboxymethoxyiminoacetamido]-3-{[1-(4-dimethylamino-2,3-dioxo-1,2,3,4-tetrahydropyrazinyl)]methyl}-Δ^3-cephem-4-carboxylic acid] | 0.2 µg/mL | ≤ 0.1 µg/mL | ≤ 0.1 µg/mL | 1.56 µg/mL |  | ≤ 0.1 µg/mL | 12.5 µg/mL | ≤ 0.1 µg/mL | ≤ 0.1 µg/mL | 0.2 µg/mL | 0.39 µg/mL | ≤ 0.1 µg/mL |  | ≤ 0.1 µg/mL |  |  | 
10 | CO/N=C(\C(=O)NC1C(=O)N2C(C(=O)O)=C(Cn3ccncc3=O)CSC12)c1csc(N)n1 (stereo not drawn) [J, trifluoroacetic acid salt of 7-[2-(2-aminothiazol-4-yl)-2-(syn)-methoxyiminoacetamido]-3-{[1-(2-oxo-1,2-dihydropyrazinyl)]methyl}-Δ^3-cephem-4-carboxylic acid] | ≤ 0.1 µg/mL | ≤ 0.1 µg/mL | 0.78 µg/mL | 0.78 µg/mL |  | 0.2 µg/mL |  | 0.2 µg/mL | ≤ 0.1 µg/mL |  |  |  |  | 0.39 µg/mL | ≤ 0.1 µg/mL |  | 
11 | CO/N=C(\C(=O)NC1C(=O)N2C(C(=O)O)=C(Cn3[nH]c(=O)ccc3=O)CSC12)c1csc(N)n1 (stereo not drawn) [K, trifluoroacetic acid salt of 7-[2-(2-aminothiazol-4-yl)-2-(syn)-methoxyiminoacetamido]-3-{[1-(3,6-dioxo-1,2,3,6-tetrahydropyridazinyl)]methyl}-Δ^3-cephem-4-carboxylic acid] | ≤ 0.1 µg/mL | ≤ 0.1 µg/mL | ≤ 0.1 µg/mL |  | ≤ 0.1 µg/mL | ≤ 0.1 µg/mL |  |  | ≤ 0.1 µg/mL |  |  | ≤ 0.1 µg/mL |  |  |  | 0.78 µg/mL | 0.2 µg/mL
12 | Nc1nc(/C(=N/OCC(=O)O)C(=O)NC2C(=O)N3C(C(=O)O)=C(Cn4[nH]c(=O)ccc4=O)CSC23)cs1 (stereo not drawn) [L, formic acid salt of 7-[2-(2-aminothiazol-4-yl)-2-(syn)-carboxymethoxyiminoacetamido]-3-{[1-(3,6-dioxo-1,2,3,6-tetrahydropyridazinyl)]methyl}-Δ^3-cephem-4-carboxylic acid] | 0.78 µg/mL | ≤ 0.1 µg/mL | ≤ 0.1 µg/mL |  |  | ≤ 0.1 µg/mL |  | 0.78 µg/mL | ≤ 0.1 µg/mL |  |  |  |  | ≤ 0.1 µg/mL | 1.56 µg/mL | 3.13 µg/mL | 
13 | CO/N=C(\C(=O)NC1C(=O)N2C(C(=O)O)=C(Cn3nc(C)ccc3=O)CSC12)c1csc(N)n1 (stereo not drawn) [M, trifluoroacetic acid salt of 7-[2-(2aminothiazol-4-yl)-2-(syn)-methoxyiminoacetamido]-3-{[1-(3-methyl-6-oxo-1,6-dihydropyridazinyl)]methyl}-Δ^3-cephem-4-carboxylic acid] | 0.2 µg/mL | 0.2 µg/mL | 0.2 µg/mL | 0.78 µg/mL |  | 0.2 µg/mL |  | 0.2 µg/mL | ≤ 0.1 µg/mL |  |  | 0.2 µg/mL |  | 0.78 µg/mL |  |  | 
14 | Cc1ccc(=O)n(CC2=C(C(=O)O)N3C(=O)C(NC(=O)/C(=N\OCC(=O)O)c4csc(N)n4)C3SC2)n1 (centres unmarked) [N] | 0.39 µg/mL (≈ 0.71 µM) | ≤ 0.1 µg/mL | ≤ 0.1 µg/mL |  | ≤ 0.1 µg/mL | ≤ 0.1 µg/mL |  | 0.2 µg/mL (≈ 0.364 µM) | ≤ 0.1 µg/mL |  |  | ≤ 0.1 µg/mL |  |  |  | 0.78 µg/mL (≈ 1.42 µM) | 
